Counter-ions that a name gives are not always drawn.
system: NCI-H292 lung cancer cells; test: FDA drug screening, complete media vs cholesterol-free media with simvastatin (TABLE 2); assay type: cell-based, human; conditions: NCI-H292 cells, FDA drug library screen, cholesterol-free media with simvastatin 0.04 μM

SMILES	Cholesterol-free media + simvastatin (0.04 μM)
COc1cc2nc(N(C)CCCNC(=O)C3CCCO3)nc(N)c2cc1OC (centres unmarked) [Alfuzosin (hydrochloride)]	0.7758
COc1cc2nc(N(C)CCCNC(=O)C3CCCO3)nc(N)c2cc1OC (centres unmarked) [Alfuzosin]	1.185
C=CCc1cc(OC)c(O)c(C(=O)NCCO)c1 [Alibendol]	0.9518
C=CCNc1nc(NCC=C)nc(N2CCN(C(c3ccc(F)cc3)c3ccc(F)cc3)CC2)n1 [Almitrine mesylate]	0.7616
C=CC(=O)Nc1cc(Nc2nccc(-c3cn(C4CC4)c4ccccc34)n2)c(OC)cc1N(C)CCN(C)C [Almonertinib]	0.4298
Cn1c(=O)cc(N2CCC[C@@H](N)C2)n(Cc2ccccc2C#N)c1=O.O=C(O)c1ccccc1 [Alogliptin (Benzoate)]	1.087
Cc1[nH]cnc1CN1CCc2c(c3ccccc3n2C)C1=O [Alosetron (Hydrochloride)]	0.9241
C[C@]12CC[C@@H]3c4ccc(O)cc4CC[C@H]3[C@@H]1CC[C@H]2O [Alpha-Estradiol]	1.11
C=CCc1ccccc1OCC(O)CNC(C)C (centres unmarked) [Alprenolol (hydrochloride)]	1.228
COC(c1ccccc1)(c1ccccc1)[C@H](Oc1nc(C)cc(C)n1)C(=O)O [Ambrisentan]	1.296
Nc1c(Br)cc(Br)cc1CN[C@H]1CC[C@H](O)CC1 [Ambroxol]	1.121
CC(=O)OCC(=O)[C@@]12OC3(CCCC3)O[C@@H]1C[C@H]1[C@@H]3CCC4=CC(=O)C=C[C@]4(C)[C@@]3(F)[C@@H](O)C[C@@]12C [Amcinonide]	0.5029
Cc1cccc(C)c1N(CC(=O)Nc1ccc(-c2ncon2)cc1)C(=O)C1CCS(=O)(=O)CC1 [Amenamevir]	0.9047
COS(=O)(=O)[O-].COc1cc(N)cn[n+]1-c1ccccc1 [Amezinium (methylsulfate)]	1.322

same assay, conditions: NCI-H292 cells, FDA drug library screen, complete media

SMILES	Complete Media
COc1cc2nc(N(C)CCCNC(=O)C3CCCO3)nc(N)c2cc1OC (centres unmarked) [Alfuzosin (hydrochloride)]	1.007
COc1cc2nc(N(C)CCCNC(=O)C3CCCO3)nc(N)c2cc1OC (centres unmarked) [Alfuzosin]	1.024
C=CCc1cc(OC)c(O)c(C(=O)NCCO)c1 [Alibendol]	0.8774
C=CCNc1nc(NCC=C)nc(N2CCN(C(c3ccc(F)cc3)c3ccc(F)cc3)CC2)n1 [Almitrine mesylate]	0.6708
C=CC(=O)Nc1cc(Nc2nccc(-c3cn(C4CC4)c4ccccc34)n2)c(OC)cc1N(C)CCN(C)C [Almonertinib]	0.2855
Cn1c(=O)cc(N2CCC[C@@H](N)C2)n(Cc2ccccc2C#N)c1=O.O=C(O)c1ccccc1 [Alogliptin (Benzoate)]	0.9402
Cc1[nH]cnc1CN1CCc2c(c3ccccc3n2C)C1=O [Alosetron (Hydrochloride)]	0.826
C[C@]12CC[C@@H]3c4ccc(O)cc4CC[C@H]3[C@@H]1CC[C@H]2O [Alpha-Estradiol]	1.408
COC(c1ccccc1)(c1ccccc1)[C@H](Oc1nc(C)cc(C)n1)C(=O)O [Ambrisentan]	1.497
Nc1c(Br)cc(Br)cc1CN[C@H]1CC[C@H](O)CC1 [Ambroxol]	0.9656
CC(=O)OCC(=O)[C@@]12OC3(CCCC3)O[C@@H]1C[C@H]1[C@@H]3CCC4=CC(=O)C=C[C@]4(C)[C@@]3(F)[C@@H](O)C[C@@]12C [Amcinonide]	0.766
Cc1cccc(C)c1N(CC(=O)Nc1ccc(-c2ncon2)cc1)C(=O)C1CCS(=O)(=O)CC1 [Amenamevir]	1.06
COS(=O)(=O)[O-].COc1cc(N)cn[n+]1-c1ccccc1 [Amezinium (methylsulfate)]	1.744

same assay, conditions: complete media minus cholesterol-free media + simvastatin; >0 enhanced anti-cancer activity, about 0 neutral, <0 antagonist

SMILES	Difference
COc1cc2nc(N(C)CCCNC(=O)C3CCCO3)nc(N)c2cc1OC (centres unmarked) [Alfuzosin (hydrochloride)]	0.23
C[C@]12CC[C@@H]3c4ccc(O)cc4CC[C@H]3[C@@H]1CC[C@H]2O [Alpha-Estradiol]	0.30
COC(c1ccccc1)(c1ccccc1)[C@H](Oc1nc(C)cc(C)n1)C(=O)O [Ambrisentan]	0.20
CC(=O)OCC(=O)[C@@]12OC3(CCCC3)O[C@@H]1C[C@H]1[C@@H]3CCC4=CC(=O)C=C[C@]4(C)[C@@]3(F)[C@@H](O)C[C@@]12C [Amcinonide]	0.26
Cc1cccc(C)c1N(CC(=O)Nc1ccc(-c2ncon2)cc1)C(=O)C1CCS(=O)(=O)CC1 [Amenamevir]	0.16

same assay, conditions: complete media minus cholesterol-free media + simvastatin; […]

SMILES	Difference
COS(=O)(=O)[O-].COc1cc(N)cn[n+]1-c1ccccc1 [Amezinium (methylsulfate)]	0.42

same assay, conditions: complete media vs cholesterol-free media + simvastatin (0.04 μM); >0 enhanced anti-cancer activity, about 0 neutral, <0 antagonist

SMILES	Difference
COc1cc2nc(N(C)CCCNC(=O)C3CCCO3)nc(N)c2cc1OC (centres unmarked) [Alfuzosin]	−0.16
C=CCc1cc(OC)c(O)c(C(=O)NCCO)c1 [Alibendol]	−0.07
C=CCNc1nc(NCC=C)nc(N2CCN(C(c3ccc(F)cc3)c3ccc(F)cc3)CC2)n1 [Almitrine mesylate]	−0.09
C=CC(=O)Nc1cc(Nc2nccc(-c3cn(C4CC4)c4ccccc34)n2)c(OC)cc1N(C)CCN(C)C [Almonertinib]	−0.14
Cn1c(=O)cc(N2CCC[C@@H](N)C2)n(Cc2ccccc2C#N)c1=O.O=C(O)c1ccccc1 [Alogliptin (Benzoate)]	−0.15
Cc1[nH]cnc1CN1CCc2c(c3ccccc3n2C)C1=O [Alosetron (Hydrochloride)]	−0.10
C=CCc1ccccc1OCC(O)CNC(C)C (centres unmarked) [Alprenolol (hydrochloride)]	−0.08
Nc1c(Br)cc(Br)cc1CN[C@H]1CC[C@H](O)CC1 [Ambroxol]	−0.16

system: NCI-H292 lung cancer cells; test: FDA drug screening, complete media vs cholesterol-free media without statin (TABLE 1); assay type: cell-based, human; conditions: Complete minus Cholesterol-free; >0 enhanced anti-cancer activity, about 0 neutral, <0 antagonist

SMILES	Difference
COc1cc2nc(N(C)CCCNC(=O)C3CCCO3)nc(N)c2cc1OC (centres unmarked) [Alfuzosin (hydrochloride)]	−0.22
C=CCc1cc(OC)c(O)c(C(=O)NCCO)c1 [Alibendol]	−0.25
C=CC(=O)Nc1cc(Nc2nccc(-c3cn(C4CC4)c4ccccc34)n2)c(OC)cc1N(C)CCN(C)C [Almonertinib]	−0.19
Cc1[nH]cnc1CN1CCc2c(c3ccccc3n2C)C1=O [Alosetron (Hydrochloride)]	0.05
Nc1c(Br)cc(Br)cc1CN[C@H]1CC[C@H](O)CC1 [Ambroxol]	−0.22

same assay, conditions: Complete minus Cholesterol-free; greater than 0 enhanced anti-cancer activity, about 0 neutral, below 0 antagonist

SMILES	Difference
COc1cc2nc(N(C)CCCNC(=O)C3CCCO3)nc(N)c2cc1OC (centres unmarked) [Alfuzosin]	−0.14
Cn1c(=O)cc(N2CCC[C@@H](N)C2)n(Cc2ccccc2C#N)c1=O.O=C(O)c1ccccc1 [Alogliptin (Benzoate)]	−0.08
C[C@]12CC[C@@H]3c4ccc(O)cc4CC[C@H]3[C@@H]1CC[C@H]2O [Alpha-Estradiol]	−0.14
C=CCc1ccccc1OCC(O)CNC(C)C (centres unmarked) [Alprenolol (hydrochloride)]	−0.15
COC(c1ccccc1)(c1ccccc1)[C@H](Oc1nc(C)cc(C)n1)C(=O)O [Ambrisentan]	−0.16
CC(=O)OCC(=O)[C@@]12OC3(CCCC3)O[C@@H]1C[C@H]1[C@@H]3CCC4=CC(=O)C=C[C@]4(C)[C@@]3(F)[C@@H](O)C[C@@]12C [Amcinonide]	−0.16
Cc1cccc(C)c1N(CC(=O)Nc1ccc(-c2ncon2)cc1)C(=O)C1CCS(=O)(=O)CC1 [Amenamevir]	−0.08

same assay, conditions: NCI-H292 cells, FDA drug library screen, cholesterol-free media without statin

SMILES	Cholesterol-free
COc1cc2nc(N(C)CCCNC(=O)C3CCCO3)nc(N)c2cc1OC (centres unmarked) [Alfuzosin]	0.9745
Cn1c(=O)cc(N2CCC[C@@H](N)C2)n(Cc2ccccc2C#N)c1=O.O=C(O)c1ccccc1 [Alogliptin (Benzoate)]	0.8854
C[C@]12CC[C@@H]3c4ccc(O)cc4CC[C@H]3[C@@H]1CC[C@H]2O [Alpha-Estradiol]	0.998
C=CCc1ccccc1OCC(O)CNC(C)C (centres unmarked) [Alprenolol (hydrochloride)]	1.198
COC(c1ccccc1)(c1ccccc1)[C@H](Oc1nc(C)cc(C)n1)C(=O)O [Ambrisentan]	1.13
CC(=O)OCC(=O)[C@@]12OC3(CCCC3)O[C@@H]1C[C@H]1[C@@H]3CCC4=CC(=O)C=C[C@]4(C)[C@@]3(F)[C@@H](O)C[C@@]12C [Amcinonide]	1.081
Cc1cccc(C)c1N(CC(=O)Nc1ccc(-c2ncon2)cc1)C(=O)C1CCS(=O)(=O)CC1 [Amenamevir]	0.9508

same assay, conditions: NCI-H292 cells, FDA drug library screen, complete media

SMILES	Complete
COc1cc2nc(N(C)CCCNC(=O)C3CCCO3)nc(N)c2cc1OC (centres unmarked) [Alfuzosin]	0.8372
Cn1c(=O)cc(N2CCC[C@@H](N)C2)n(Cc2ccccc2C#N)c1=O.O=C(O)c1ccccc1 [Alogliptin (Benzoate)]	0.8074
C[C@]12CC[C@@H]3c4ccc(O)cc4CC[C@H]3[C@@H]1CC[C@H]2O [Alpha-Estradiol]	0.8561
C=CCc1ccccc1OCC(O)CNC(C)C (centres unmarked) [Alprenolol (hydrochloride)]	1.044
COC(c1ccccc1)(c1ccccc1)[C@H](Oc1nc(C)cc(C)n1)C(=O)O [Ambrisentan]	0.9703
CC(=O)OCC(=O)[C@@]12OC3(CCCC3)O[C@@H]1C[C@H]1[C@@H]3CCC4=CC(=O)C=C[C@]4(C)[C@@]3(F)[C@@H](O)C[C@@]12C [Amcinonide]	0.9188
Cc1cccc(C)c1N(CC(=O)Nc1ccc(-c2ncon2)cc1)C(=O)C1CCS(=O)(=O)CC1 [Amenamevir]	0.8718

same assay, conditions: NCI-H292 cells, cholesterol-free media without statin

SMILES	Cholesterol-free
COc1cc2nc(N(C)CCCNC(=O)C3CCCO3)nc(N)c2cc1OC (centres unmarked) [Alfuzosin (hydrochloride)]	1.203
C=CCc1cc(OC)c(O)c(C(=O)NCCO)c1 [Alibendol]	1.047
C=CC(=O)Nc1cc(Nc2nccc(-c3cn(C4CC4)c4ccccc34)n2)c(OC)cc1N(C)CCN(C)C [Almonertinib]	0.4646
Nc1c(Br)cc(Br)cc1CN[C@H]1CC[C@H](O)CC1 [Ambroxol]	1.134

same assay, conditions: NCI-H292 cells, cholesterol-free media without statin, FDA drug library screen

SMILES	Cholesterol-free
C=CCNc1nc(NCC=C)nc(N2CCN(C(c3ccc(F)cc3)c3ccc(F)cc3)CC2)n1 [Almitrine mesylate]	0.7257
Cc1[nH]cnc1CN1CCc2c(c3ccccc3n2C)C1=O [Alosetron (Hydrochloride)]	1.398
COS(=O)(=O)[O-].COc1cc(N)cn[n+]1-c1ccccc1 [Amezinium (methylsulfate)]	1.242

same assay, conditions: NCI-H292 cells, complete media

SMILES	Complete
COc1cc2nc(N(C)CCCNC(=O)C3CCCO3)nc(N)c2cc1OC (centres unmarked) [Alfuzosin (hydrochloride)]	0.9827
C=CCc1cc(OC)c(O)c(C(=O)NCCO)c1 [Alibendol]	0.797
C=CC(=O)Nc1cc(Nc2nccc(-c3cn(C4CC4)c4ccccc34)n2)c(OC)cc1N(C)CCN(C)C [Almonertinib]	0.2735
Nc1c(Br)cc(Br)cc1CN[C@H]1CC[C@H](O)CC1 [Ambroxol]	0.9121

same assay, conditions: NCI-H292 cells, complete media, FDA drug library screen

SMILES	Complete
C=CCNc1nc(NCC=C)nc(N2CCN(C(c3ccc(F)cc3)c3ccc(F)cc3)CC2)n1 [Almitrine mesylate]	0.8177
Cc1[nH]cnc1CN1CCc2c(c3ccccc3n2C)C1=O [Alosetron (Hydrochloride)]	1.45
COS(=O)(=O)[O-].COc1cc(N)cn[n+]1-c1ccccc1 [Amezinium (methylsulfate)]	1.933

same assay, conditions: complete vs cholesterol-free media; >0 enhanced anti-cancer activity, about 0 neutral, <0 antagonist

SMILES	Difference
C=CCNc1nc(NCC=C)nc(N2CCN(C(c3ccc(F)cc3)c3ccc(F)cc3)CC2)n1 [Almitrine mesylate]	0.09

same assay, conditions: complete vs cholesterol-free media; […]

SMILES	Difference
COS(=O)(=O)[O-].COc1cc(N)cn[n+]1-c1ccccc1 [Amezinium (methylsulfate)]	0.69

Source: patent US20250144067A1, “PERSONALIZED STARVATION THERAPY FOR CANCER” (Faeth Therapeutics, Inc., priority 2021, published 2025)
